# Laboratory results reported in patent publication US20240199964A1, “COMPOUNDS FOR MARKING LIQUIDS” (KUANTAG NANOTEKNOLOJILER GELISTIRME VE URETIM A.S., priority 2022, published 2024).
# Legend:
# Type in all cases: physicochemical
# [1] = absorbance spectroscopy of marker in xylene solution; conditions: for Ab. max.: xylene solution having 0.5 ppm marker material, experimental; for Ab. max. (estimated): not experimental, estimated based on the values of formulas (II) and (III)
# Excerpt: (§1) Chemical structures of other examples of anthrapyridone marker compounds derived based on the general formula (I) may be seen below. […] Table 1 identifies side groups of each anthrapyridone compound based on the general formula (I) and their absorption and emission characteristics. In Table 1, only the absorbance maximum and emission maximum values for the anthrapyridone compound markers with formula (II) and formula (III) are experimental. In the spectroscopic measurements, each test sample includes a xylene solution having 0.5 ppm marker material. For emission measurements 543 and 551 nm excitation wavelength are used, respectively. The absorbance maximum and emission maximum values of the formulas (IV)-(X) are not experimental values. These values are estimated values based on the values of the formulas (II) and (III).
# [2] = fluorescence emission spectroscopy of marker in xylene solution; conditions: for Em. max.: xylene solution having 0.5 ppm marker material, excitation 543 nm for (II), 551 nm for (III), experimental; for Em. max. (estimated): not experimental, estimated based on the values of formulas (II) and (III)
# Excerpt: as §1
# [3] = absorbance spectrum (UV-Vis) of marker in diesel fuel, FIG. 2A; conditions: diesel solution, about 0.5 ppm marker material
# Excerpt: FIG. 2A is a graph of an absorbance spectrum 10A of the marker material (the anthrapyridone compound of formula (III)) in diesel fuel. The absorbance spectrum 10A includes two absorbance maximums 11A and 11B at about 520 nm and about 550 nm wavelength values of the visible radiation range, respectively. A diesel solution having about 0.5 ppm marker material concentration may be used as a test sample for this spectral analysis. The absorbance spectroscopy instrument may be any type of absorbance spectroscopy instrument that is able to take absorbance spectrum in visible radiation region, i.e., 400-600 nm.
# The absorbance spectrum shown in FIG. 2A is taken by a UV-Vis Spectroscopy instrument from Thermo Scientific Co in a test range of about 400-650 nm. The fluorescence spectrum shown in FIG. 2B is taken by a fluorescence spectroscopy instrument from Edinburgh Co.
SMILES,Ab. max. [1] [nm],Em. max. [2],absorbance maximum 11A [3],absorbance maximum 11B [3],Ab. max. (estimated) [1],Em. max. (estimated) [2]
"Cc1ccc(Nc2ccc3c4c(cc(=O)n3C)-c3ccccc3C(=O)c24)cc1 [formula (II), Solvent Red 52]",543,no emission,,,,
"Cn1c(=O)cc2c3c(c(NC4CCCCC4)ccc31)C(=O)c1ccccc1-2 [formula (III), Solvent Red 149]",551,580 nm,about 520 nm,about 550 nm,,
"Cn1c(=O)cc2c3c(c(NCc4ccccc4)ccc31)C(=O)c1ccccc1-2 [formula (IV), Solvent Red 150]",,,,,540-560 nm,575-600 nm
CCCCCCCCCCCNc1ccc2c3c(cc(=O)n2C)-c2ccccc2C(=O)c13 [formula (IX)],,,,,540-560 nm,575-600 nm
CNc1ccc2c3c(cc(=O)n2C)-c2ccccc2C(=O)c13 [formula (V)],,,,,540-560 nm,575-600 nm
CCCCC(CC)CNc1ccc2c3c(cc(=O)n2CC(CC)CCCC)-c2ccccc2C(=O)c13 (centres unmarked) [formula (VI)],,,,,540-560 nm,575-600 nm
CCCCC(CC)CNc1ccc2c3c(cc(=O)n2C)-c2ccccc2C(=O)c13 (centres unmarked) [formula (VII)],,,,,540-560 nm,575-600 nm
O=C1c2ccccc2-c2cc(=O)n(C3CCCCC3)c3ccc(NC4CCCCC4)c1c23 [formula (VIII)],,,,,540-560 nm,575-600 nm
O=C1c2ccccc2-c2cc(=O)n(Cc3ccccc3)c3ccc(NCc4ccccc4)c1c23 [formula (X)],,,,,540-560 nm,575-600 nm
